{"source": "PubChem BioAssay AID328", "about": "(DTP/NCI, 2004)", "tested_on": "BDF1 mice, P388 leukemia ip, median survival T/C", "experiment": "NCI In Vivo Anticancer Drug Screen. Data for tumor model P388 Leukemia (intraperitoneal) in B6D2F1 (BDF1) mice", "conditions": "endpoint: median survival time, higher = longer survival", "outline": "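Reported as T/C, where T is the survival measurement in dosed animals and C the same measurement in vehicle controls.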", "key": {"[1]": {"conditions": "dose: 50.0 mg/kg/injection, schedule: Q04DX003 (ip), vehicle: Klucel (hydroxypropylcellulose) (HPC)"}, "[2]": {"conditions": "dose: 100.0 mg/kg/injection, schedule: Q04DX003 (ip), vehicle: Klucel (hydroxypropylcellulose) (HPC)"}, "[3]": {"conditions": "dose: 200.0 mg/kg/injection, schedule: Q04DX003 (ip), vehicle: Klucel (hydroxypropylcellulose) (HPC)"}}, "note": "“And” between values parts separate entries of the source, which are not always exact repeats. Identical values can stand only once. Toxic doses and inconclusive results are not listed."}
{"smiles": "CN(C)c1ccc(C(C#N)(c2ccc(N(C)C)cc2)c2ccc(N(C)C)cc2)cc1", "values": [{"measurement": "T/C", "setting": "[1]", "result": "100 % of control"}, {"measurement": "T/C", "setting": "[2]", "result": "100 % of control"}, {"measurement": "T/C", "setting": "[3]", "result": "95 % of control"}]}
{"smiles": "O=C(Nc1ccc(Cl)c(C(F)(F)F)c1)Nc1ccc(Oc2ccc(Cl)cc2)cc1S(=O)(=O)O", "values": [{"measurement": "T/C", "setting": "dose: 50.0 mg/kg/injection, schedule: Q04DX003 (ip), vehicle: saline", "result": "100 % of control"}, {"measurement": "T/C", "setting": "dose: 100.0 mg/kg/injection, schedule: Q04DX003 (ip), vehicle: saline", "result": "95 % of control"}, {"measurement": "T/C", "setting": "dose: 200.0 mg/kg/injection, schedule: Q04DX003 (ip), vehicle: saline", "result": "95 % of control"}]}
{"smiles": "CCOC(=O)C1Cc2ccccc2OC1=O", "note": "(centres undefined)", "values": [{"measurement": "T/C", "setting": "dose: 50.0 mg/kg/injection, schedule: Q01DX005 (ip), vehicle: saline with Tween-80", "result": "105 % of control"}, {"measurement": "T/C", "setting": "dose: 100.0 mg/kg/injection, schedule: Q01DX005 (ip), vehicle: saline with Tween-80", "result": "100 % of control"}, {"measurement": "T/C", "setting": "dose: 200.0 mg/kg/injection, schedule: Q01DX005 (ip), vehicle: saline with Tween-80", "result": "91 % of control"}]}
{"smiles": "CC1=C2CC[C@H]3[C@@H]4CC[C@H](O)[C@@]4(C)CC[C@@H]3[C@@]2(C)CCC1=O", "values": [{"measurement": "T/C", "setting": "dose: 100.0 mg/kg/injection, schedule: Q04DX003 (ip), vehicle: saline with Tween-80", "result": "95 % of control"}, {"measurement": "T/C", "setting": "dose: 200.0 mg/kg/injection, schedule: Q04DX003 (ip), vehicle: saline with Tween-80", "result": "95 % of control"}, {"measurement": "T/C", "setting": "dose: 400.0 mg/kg/injection, schedule: Q04DX003 (ip), vehicle: saline with Tween-80", "result": "100 % of control"}]}
{"smiles": "CC[N+](CC)(CC)CC.N#C/C([SH2+])=C(/[SH2+])C#N.N#C/C([SH2+])=C(/[SH2+])C#N.[Fe+2]", "values": [{"measurement": "T/C", "setting": "dose: 1.56 mg/kg/injection, schedule: Q01DX009 (ip), vehicle: saline with Tween-80", "result": "105 % of control"}, {"measurement": "T/C", "setting": "dose: 3.12 mg/kg/injection, schedule: Q01DX009 (ip), vehicle: saline with Tween-80", "result": "110 % of control"}, {"measurement": "T/C", "setting": "dose: 3.5 mg/kg/injection, schedule: Q01DX001 (ip), vehicle: saline with Tween-80", "result": "100 % of control"}, {"measurement": "T/C", "setting": "dose: 6.25 mg/kg/injection, schedule: Q01DX009 (ip), vehicle: saline with Tween-80", "result": "110 % of control"}, {"measurement": "T/C", "setting": "dose: 7.0 mg/kg/injection, schedule: Q01DX001 (ip), vehicle: saline with Tween-80", "result": "95 % of control"}, {"measurement": "T/C", "setting": "dose: 9.2 mg/kg/injection, schedule: Q04DX003 (ip), vehicle: saline with Tween-80", "result": "100 % of control"}, {"measurement": "T/C", "setting": "dose: 14.0 mg/kg/injection, schedule: Q04DX003 (ip), vehicle: saline with Tween-80", "result": "95 % of control"}]}
{"smiles": "O=C1c2ccccc2CCC12OC2c1ccccc1[N+](=O)[O-]", "note": "(centres undefined)", "values": [{"measurement": "T/C", "setting": "[1]", "result": "110 % of control"}, {"measurement": "T/C", "setting": "[2]", "result": "100 % of control"}, {"measurement": "T/C", "setting": "[3]", "result": "110 % of control"}]}
{"smiles": "OCCCN1CCCCC1CO", "note": "(centres undefined)", "values": [{"measurement": "T/C", "setting": "dose: 200.0 mg/kg/injection, schedule: Q01DX009 (ip), vehicle: saline", "result": "165 % of control"}]}
{"smiles": "CC(=O)Nc1cc(C)c(C)cc1[N+](=O)[O-]", "values": [{"measurement": "T/C", "setting": "dose: 100.0 mg/kg/injection, schedule: Q01DX009 (ip), vehicle: Klucel (hydroxypropylcellulose) (HPC)", "result": "95 % of control"}, {"measurement": "T/C", "setting": "[2]", "result": "104 % of control"}, {"measurement": "T/C", "setting": "dose: 200.0 mg/kg/injection, schedule: Q01DX009 (ip), vehicle: Klucel (hydroxypropylcellulose) (HPC)", "result": "109 % of control"}, {"measurement": "T/C", "setting": "[3]", "result": "90 % of control"}, {"measurement": "T/C", "setting": "dose: 400.0 mg/kg/injection, schedule: Q01DX009 (ip), vehicle: Klucel (hydroxypropylcellulose) (HPC)", "result": "95 % of control"}, {"measurement": "T/C", "setting": "dose: 400.0 mg/kg/injection, schedule: Q04DX003 (ip), vehicle: Klucel (hydroxypropylcellulose) (HPC)", "result": "86 % of control"}]}
{"smiles": "O=C(NCCNCc1ccccc1)c1ccccc1", "values": [{"measurement": "T/C", "setting": "dose: 12.5 mg/kg/injection, schedule: Q01DX009 (ip), vehicle: water", "result": "96 % of control"}, {"measurement": "T/C", "setting": "dose: 12.5 mg/kg/injection, schedule: Q04DX003 (ip), vehicle: water", "result": "92 % of control"}, {"measurement": "T/C", "setting": "dose: 16.0 mg/kg/injection, schedule: Q01DX009 (ip), vehicle: water", "result": "100 % of control"}, {"measurement": "T/C", "setting": "dose: 25.0 mg/kg/injection, schedule: Q01DX009 (ip), vehicle: water", "result": "99 % of control and 122 % of control"}, {"measurement": "T/C", "setting": "dose: 25.0 mg/kg/injection, schedule: Q04DX003 (ip), vehicle: water", "result": "95 % of control and 99 % of control"}, {"measurement": "T/C", "setting": "dose: 40.0 mg/kg/injection, schedule: Q01DX009 (ip), vehicle: water", "result": "113 % of control"}, {"measurement": "T/C", "setting": "dose: 50.0 mg/kg/injection, schedule: Q01DX009 (ip), vehicle: water", "result": "103 % of control"}, {"measurement": "T/C", "setting": "dose: 50.0 mg/kg/injection, schedule: Q04DX003 (ip), vehicle: water", "result": "97 % of control"}, {"measurement": "T/C", "setting": "dose: 100.0 mg/kg/injection, schedule: Q01DX009 (ip), vehicle: water", "result": "90 % of control"}, {"measurement": "T/C", "setting": "dose: 100.0 mg/kg/injection, schedule: Q04DX003 (ip), vehicle: water", "result": "95 % of control and 99 % of control"}]}
